Test: Cannabinoid stability in solution (time course incubation)
Format: physicochemical
Details: for Day 0 concentration in solution / Day 1 concentration in solution / Day 4 concentration in solution / Day 5 concentration in solution / Day 6 concentration in solution / Day 7 concentration in solution: room temperature, shielded from light
Procedure: Rather, levels increased slightly in all treatments. The absence of any residual UGTs were cross-check and confirmed as the samples were purified by SPE, washed and eluted in 30% and 65%-100% ethanol, respectively.
Materials and Methods Example 19: Cannabinoid Stability in Solution.
The present inventors generated a stock solution of the CBD/CBDA+glycosides mixture in water which was further diluted 10× in all treatment solutions. A 10 mL starting volume was used for all treatments, and all treatments were prepared in triplicate. […] Each sample was incubated at room temperature. Samples were stored in 15 mL polypropylene centrifuge tubes. All samples were shielded from light—tubes were wrapped in aluminum foil. Each sample was prepared in triplicate in the following buffers: water only; pH=3; pH=4; pH=7; pH=8; water only+10 mM ascorbic acid; pH=3+10 mM ascorbic acid; pH=4+10 mM ascorbic acid; pH=7+10 mM ascorbic acid; and pH=8+10 mM ascorbic acid.

[1] = Water + AA (10 mM ascorbic acid)
[2] = pH = 3 + AA (10 mM ascorbic acid)
[3] = pH = 4 + AA (10 mM ascorbic acid)
[4] = pH = 7 + AA (10 mM ascorbic acid)
[5] = pH = 8 + AA (10 mM ascorbic acid)

Compound: C=C(C)C1CCC(C)=CC1c1c(O)cc(CCCCC)cc1OC1OC(COC(C)=O)C(O)C(O)C1O (stereo not drawn) [1X CBD O-Acetyl Gly]
- Day 0 concentration in solution [1]: 102.24 ± 12.18 µg/mL
- Day 0 concentration in solution (Water): 137.46 ± 35.49 µg/mL
- Day 0 concentration in solution [2]: 110.44 ± 13.31 µg/mL
- Day 0 concentration in solution (pH = 3): 126.49 ± 43.90 µg/mL
- Day 0 concentration in solution [3]: 118.27 ± 1.16 µg/mL
- Day 0 concentration in solution (pH = 4): 101.60 ± 31.49 µg/mL
- Day 0 concentration in solution [4]: 108.19 ± 19.12 µg/mL
- Day 0 concentration in solution (pH = 7): 107.55 ± 20.03 µg/mL
- Day 0 concentration in solution [5]: 137.53 ± 6.71 µg/mL
- Day 0 concentration in solution (pH = 8): 108.41 ± 12.42 µg/mL
- Day 1 concentration in solution [1]: 204.63 ± 24.09 µg/mL
- Day 1 concentration in solution (Water): 136.86 ± 139.68 µg/mL
- Day 1 concentration in solution [2]: 223.32 ± 48.67 µg/mL
- Day 1 concentration in solution (pH = 3): 216.46 ± 9.61 µg/mL
- Day 1 concentration in solution [3]: 198.56 ± 24.37 µg/mL
- Day 1 concentration in solution (pH = 4): 150.94 ± 27.25 µg/mL
- Day 1 concentration in solution [4]: 185.02 ± 35.46 µg/mL
- Day 1 concentration in solution (pH = 7): 250.75 ± 6.23 µg/mL
- Day 1 concentration in solution [5]: 180.83 ± 33.60 µg/mL
- Day 1 concentration in solution (pH = 8): 221.10 ± 16.30 µg/mL
- Day 4 concentration in solution [1]: 153.06 ± 28.19 µg/mL
- Day 4 concentration in solution (Water): 160.23 ± 23.75 µg/mL
- Day 4 concentration in solution [2]: 157.19 ± 1.58 µg/mL
- Day 4 concentration in solution (pH = 3): 174.88 ± 14.16 µg/mL
- Day 4 concentration in solution [3]: 144.44 ± 18.85 µg/mL
- Day 4 concentration in solution (pH = 4): 225.84 ± 39.59 µg/mL
- Day 4 concentration in solution [4]: 176.48 ± 33.58 µg/mL
- Day 4 concentration in solution (pH = 7): 190.05 ± 24.38 µg/mL
- Day 4 concentration in solution [5]: 152.03 ± 5.79 µg/mL
- Day 4 concentration in solution (pH = 8): 174.09 ± 59.87 µg/mL
- Day 5 concentration in solution [1]: 146.60 ± 10.68 µg/mL
- Day 5 concentration in solution (Water): 131.77 ± 33.91 µg/mL
- Day 5 concentration in solution [2]: 97.81 ± 29.67 µg/mL
- Day 5 concentration in solution (pH = 3): 83.72 ± 35.56 µg/mL
- Day 5 concentration in solution [3]: 113.89 ± 31.15 µg/mL
- Day 5 concentration in solution (pH = 4): 164.84 ± 35.61 µg/mL
- Day 5 concentration in solution [4]: 110.66 ± 48.12 µg/mL
- Day 5 concentration in solution (pH = 7): 186.93 ± 5.65 µg/mL
- Day 5 concentration in solution [5]: 92.06 ± 15.47 µg/mL
- Day 5 concentration in solution (pH = 8): 162.75 ± 31.35 µg/mL
- Day 6 concentration in solution [1]: 200.20 ± 37.42 µg/mL
- Day 6 concentration in solution (Water): 148.36 ± 33.57 µg/mL
- Day 6 concentration in solution [2]: 190.69 ± 36.71 µg/mL
- Day 6 concentration in solution (pH = 3): 175.06 ± 31.37 µg/mL
- Day 6 concentration in solution [3]: 215.72 ± 16.69 µg/mL
- Day 6 concentration in solution (pH = 4): 231.03 ± 36.34 µg/mL
- Day 6 concentration in solution [4]: 205.61 ± 26.64 µg/mL
- Day 6 concentration in solution (pH = 7): 267.45 ± 30.83 µg/mL
- Day 6 concentration in solution [5]: 217.66 ± 11.23 µg/mL
- Day 6 concentration in solution (pH = 8): 218.64 ± 22.05 µg/mL
- Day 7 concentration in solution [1]: 167.42 ± 22.79 µg/mL
- Day 7 concentration in solution (Water): 185.62 ± 22.87 µg/mL
- Day 7 concentration in solution [2]: 147.21 ± 8.07 µg/mL
- Day 7 concentration in solution (pH = 3): 195.77 ± 15.07 µg/mL
- Day 7 concentration in solution [3]: 166.23 ± 17.10 µg/mL
- Day 7 concentration in solution (pH = 4): 201.23 ± 6.99 µg/mL
- Day 7 concentration in solution [4]: 157.89 ± 17.21 µg/mL
- Day 7 concentration in solution (pH = 7): 187.10 ± 28.07 µg/mL
- Day 7 concentration in solution [5]: 181.7 ± 29.53 µg/mL
- Day 7 concentration in solution (pH = 8): 193.61 ± 21.84 µg/mL
- change of level in solution over the incubation (all treatments, after day 7, room temperature): not found to decrease in any sample after day 7

Compound: C=C(C)C1CCC(C)=CC1c1c(O)cc(CCCCC)cc1OC1OC(CO)C(O)C(O)C1O (stereo not drawn) [1X CBD Gly]
- Day 1 concentration in solution [1]: 7.99 ± 4.17 µg/mL
- Day 1 concentration in solution (Water): 1.20 ± 21.68 µg/mL
- Day 1 concentration in solution [2]: 9.78 ± 5.27 µg/mL
- Day 1 concentration in solution (pH = 3): 8.83 ± 1.80 µg/mL
- Day 1 concentration in solution [3]: 5.82 ± 3.11 µg/mL
- Day 1 concentration in solution (pH = 4): below LOQ
- Day 1 concentration in solution [4]: 5.73 ± 4.70 µg/mL
- Day 1 concentration in solution (pH = 7): 15.45 ± 0.07 µg/mL
- Day 1 concentration in solution [5]: 1.04 ± 4.15 µg/mL
- Day 1 concentration in solution (pH = 8): 12.86 ± 4.15 µg/mL
- Day 4 concentration in solution [1]: 17.55 ± 5.99 µg/mL
- Day 4 concentration in solution (Water): 15.11 ± 10.77 µg/mL
- Day 4 concentration in solution [2]: 17.99 ± 4.60 µg/mL
- Day 4 concentration in solution (pH = 3): 18.94 ± 4.88 µg/mL
- Day 4 concentration in solution [3]: 17.02 ± 5.68 µg/mL
- Day 4 concentration in solution (pH = 4): 29.03 ± 8.17 µg/mL
- Day 4 concentration in solution [4]: 19.96 ± 9.83 µg/mL
- Day 4 concentration in solution (pH = 7): 19.64 ± 3.44 µg/mL
- Day 4 concentration in solution [5]: 15.86 ± 2.63 µg/mL
- Day 4 concentration in solution (pH = 8): 26.99 ± 15.29 µg/mL
- Day 5 concentration in solution [1]: 19.70 ± 0.80 µg/mL
- Day 5 concentration in solution (Water): 14.60 ± 1.31 µg/mL
- Day 5 concentration in solution [2]: 19.29 ± 3.26 µg/mL
- Day 5 concentration in solution (pH = 3): 18.00 ± 0.59 µg/mL
- Day 5 concentration in solution [3]: 19.34 ± 1.90 µg/mL
- Day 5 concentration in solution (pH = 4): 18.26 ± 0.52 µg/mL
- Day 5 concentration in solution [4]: 19.05 ± 3.91 µg/mL
- Day 5 concentration in solution (pH = 7): 17.50 ± 1.63 µg/mL
- Day 5 concentration in solution [5]: 20.14 ± 1.73 µg/mL
- Day 5 concentration in solution (pH = 8): 19.73 ± 0.55 µg/mL
- Day 6 concentration in solution [1]: 34.98 ± 9.28 µg/mL
- Day 6 concentration in solution (Water): 8.56 ± 7.04 µg/mL
- Day 6 concentration in solution [2]: 27.67 ± 9.51 µg/mL
- Day 6 concentration in solution (pH = 3): 21.59 ± 7.97 µg/mL
- Day 6 concentration in solution [3]: 31.67 ± 4.29 µg/mL
- Day 6 concentration in solution (pH = 4): 32.87 ± 8.08 µg/mL
- Day 6 concentration in solution [4]: 30.43 ± 4.82 µg/mL
- Day 6 concentration in solution (pH = 7): 46.80 ± 10.12 µg/mL
- Day 6 concentration in solution [5]: 32.97 ± 1.31 µg/mL
- Day 6 concentration in solution (pH = 8): 44.10 ± 3.45 µg/mL
- Day 7 concentration in solution [1]: 24.99 ± 7.29 µg/mL
- Day 7 concentration in solution (Water): 23.89 ± 5.27 µg/mL
- Day 7 concentration in solution [2]: 19.38 ± 0.46 µg/mL
- Day 7 concentration in solution (pH = 3): 27.06 ± 4.05 µg/mL
- Day 7 concentration in solution [3]: 23.30 ± 3.95 µg/mL
- Day 7 concentration in solution (pH = 4): 26.96 ± 0.46 µg/mL
- Day 7 concentration in solution [4]: 39.57 ± 4.63 µg/mL
- Day 7 concentration in solution (pH = 7): 22.14 ± 6.83 µg/mL
- Day 7 concentration in solution [5]: 37.93 ± 2.89 µg/mL
- Day 7 concentration in solution (pH = 8): 32.42 ± 8.76 µg/mL
